Results taken from patent US8487131B2 (Sanford-Burnham Medical Research Institute, priority 2009, dated 2013).
Entries after “also recorded” stand apart in the source; their conditions may differ.

How the values were obtained:
[1] = In vitro rat plasma stability; assay type: in vitro ADME
Excerpt: (§1) Next, we examined the pharmacological properties of the isomers as chirality could greatly affect such properties due to stereoselective metabolism. To test the pharmacological properties of diastereoisomers 11-14, we determined their in vitro rat plasma stability, rat microsomal stability, and cell membrane permeability (Table 4).

H460 cells = assay: Cell viability, ATP-LITE assay, H460; assay type: cell-based, human; details: 72 hours of treatment
Description: The activity of the compounds against human cancer cell lines (PC3, H460, H1299) were assessed by using the ATP-LITE assay (PerkinElmer). All cells were seeded in either […] or RPMI1640 medium with 5 mM L-glutamine supplemented with 5% fetal bovine serum (Mediatech Inc.), penicillin and streptomycin (Omega). For maintenance, cells were cultured in 5% FBS. Cells plated into 96 well plates at varying initial densities depending on doubling time. […] Compounds were diluted to final concentrations with 0.1% DMSO. Prior to dispensing compounds onto cells, fresh 5% media was placed into wells. Administration of compounds occurred 24 hours after seeding into the fresh media. Cell viability was evaluated using ATP-LITE reagent (PerkinElmer) after 72 hours of treatment. Data were normalized to the DMSO control-treated cells using Prism version 5.01 (Graphpad Software).

[2] = system: Bax/Bak double knockout MEF cells (MEF/DKO); assay: Apoptosis, FITC-Annexin V/PI assay, MEF/DKO; assay type: cell-based, mouse; details: for toxicity in MEF/DKO cells: 30 μM, FITC-Annexin V/PI
Description: Wild-type MEF and DKO/MEF were seeded in 24-well plate at a seeding density of half a million per well (in 1 ml of DMEM medium supplemented by 10% FCS). […] On the following day, floating cells were pooled with adherent cells harvested after brief incubation with 0.25% Trypsin/EDTA solution (Gibco/In-Vitrogen Inc.). Cells were centrifuged and supernatant was discarded, and cell pellet was re-suspended with 0.2 ml of Annexin-V binding buffer, followed by addition of 1 μl Annexin-FITC and 1 μl PI (propidium iodide). The percentage of viable cells was determined by a 3-color FACSort instrument and data analyzed by Flow-Jo program, scoring Annexin V-negative, PI-negative as viable cells.

[3] = rat, 40 min
Excerpt: as §1

[4] = system: Bcl-2 transgenic mice (B6Bcl2); assay: Bcl-2 transgenic mice, spleen weight; assay type: in vivo, mouse; details: for in vivo activity in Bcl-2 transgenic mice: single i.p. 42 mg/kg
Description: Transgenic mice expressing Bcl-2 have been described as the B6 line.^48 The BCL-2 transgene represents a minigene version of a t(14;18) translocation in which the human BCL-2 gene is fused with the immunoglobulin heavy-chain (IgH) locus and associated IgH enhancer. The transgene was propagated on the Balb/c background.
After 24 hours, B6Bcl2 mice were sacrificed by intraperitoneal injection of lethal dose of Avertin. Spleen was removed and weighed.

[5] = system: MDA-MB-231 breast cancer cells; details: reference 13; read-out: EC50 in killing MDA-MB-231 breast cancer cells; cited from earlier work
BP3 cell line = assay: Apoptosis, Annexin V-FITC and propidium iodide assay, BP3; assay type: cell-based, human
Description: The apoptotic activity of the compounds against BP3 cells was assessed by staining with Annexin V- and propidium iodide (PI). BP3 cell line was cultured in RPMI 1640 medium (Mediatech Inc., Herndon, Va. 20171) containing 10% fetal bovine serum (Mediatech Inc., Herndon, Va. 20171) and Penicillin/Streptomycin (Mediatech Inc., Herndon, Va. 20171). […] The percentage of viable cells was determined by FITC-Annexin V- and propidium iodide (PI)-labeling, using an Apoptosis Detection kit (BioVision Inc.), and analyzing stained cells by flow cytometry (FACSort; Bectin-Dickinson, Inc.; Mountain View, Calif.). Cells that were annexin-V-negative and PI-negative were considered viable.

[6] = system: cancer cells that overexpress Mcl-1; details: references 32, 36; cited from earlier work
Bcl-XL [7] = molecular target: T1, Bcl-XL (Homo sapiens, UniProt Q07817); assay: Isothermal Titration Calorimetry assay (ITC); assay type: binding; details: Kd ratio versus 12-14
T1 sequence (Q07817 whole entry): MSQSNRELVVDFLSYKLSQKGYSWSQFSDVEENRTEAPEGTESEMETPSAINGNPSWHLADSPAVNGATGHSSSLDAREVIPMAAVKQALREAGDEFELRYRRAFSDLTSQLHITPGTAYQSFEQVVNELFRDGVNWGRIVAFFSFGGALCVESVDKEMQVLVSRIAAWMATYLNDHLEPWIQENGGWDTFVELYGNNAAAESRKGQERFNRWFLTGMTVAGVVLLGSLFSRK

[8] = Cell membrane permeability (PAMPA, LogPe); assay type: in vitro ADME; details: compared to 12-14
Excerpt: as §1

[9] = system: wild type mouse embryonic fibroblast cells (MEF/WT); assay: Apoptosis, FITC-Annexin V/PI assay, MEF/WT; assay type: cell-based; details: 30 μM
Description: Wild-type MEF and DKO/MEF were seeded in 24-well plate at a seeding density of half a million per well (in 1 ml of DMEM medium supplemented by 10% FCS). Next day, compound was added to wild-type and DKO cells at final concentration of 0, 2.5, 5.0, 7.5, 10 and 30 μM. On the following day, floating cells were pooled with adherent cells harvested after brief incubation with 0.25% Trypsin/EDTA solution (Gibco/In-Vitrogen Inc.). Cells were centrifuged and supernatant was discarded, and cell pellet was re-suspended with 0.2 ml of Annexin-V binding buffer, followed by addition of 1 μl Annexin-FITC and 1 μl PI (propidium iodide). The percentage of viable cells was determined by a 3-color FACSort instrument and data analyzed by Flow-Jo program, scoring Annexin V-negative, PI-negative as viable cells.

M2182 cells = assay: Prostate cancer xenograft in athymic nude mice; assay type: in vivo, mouse; details: for inhibitory effect of tumor size compared with the control group: all doses, i.p. every 2 days
Description: Cells were then selected for 2 weeks in 200 μg/ml of hygromycin, and individual colonies were isolated, expanded, and maintained in 5 μg/m1 hygromycin. The overexpression of luciferase in these clones was confirmed by measuring luciferase activity.
M2182-Luc cells (1×10^6) were injected s.c. in 100 μL of PBS in the left and right flanks of male athymic nude mice (NCR^nu/nu, 4 weeks old, 20 g body weight) as described previously.^40 After establishing visible tumors of ˜75-mm^3, requiring ˜5-6 days, compound dissolved in 500 μL of solvent (ethanol/Cremophor EL/saline=10:10:80) were injected intraperitoneally (i.p.). The injections were given every 2 days for a total of nine injections. […] A minimum of five animals was used per experimental condition. For in vivo imaging of tumors, the mice were anesthetized and injected i.p. with 150 mg/kg luciferin and light emitted from each tumor was determined using a Xenogen system with CCD camera with an integration time of 1 min. Luminescence measurements were made using Living Image software (version 2.50.1; Xenogen). At the end of the experiment, the animals were sacrificed, and the tumors were removed and photographed.

Bcl-XL [10] = molecular target: T1, Bcl-XL; assay: NMR binding assays (1D 1H-NMR, 2D [15N,1H]-TROSY), Bcl-XL; details: 2D TROSY at ligand/protein ratio 1:1
Mcl-1 = Mcl-1 (Homo sapiens, UniProt Q07820); assay: 2D [15N,1H]-TROSY NMR binding, Mcl-1; details: 2D TROSY, ligand/protein ratio of 2:1
Mcl-1, sequence (Q07820 whole entry): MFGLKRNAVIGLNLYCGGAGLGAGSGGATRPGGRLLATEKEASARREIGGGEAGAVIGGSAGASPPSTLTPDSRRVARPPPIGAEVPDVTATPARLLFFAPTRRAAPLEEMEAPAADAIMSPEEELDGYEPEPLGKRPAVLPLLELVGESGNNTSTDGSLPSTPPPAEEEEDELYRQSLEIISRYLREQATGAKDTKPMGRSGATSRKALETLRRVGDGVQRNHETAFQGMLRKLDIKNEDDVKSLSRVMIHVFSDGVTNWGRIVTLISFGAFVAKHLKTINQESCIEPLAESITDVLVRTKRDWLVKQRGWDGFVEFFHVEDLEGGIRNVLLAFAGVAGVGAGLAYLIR

[11] = Chemical stability at different temperatures; assay type: physicochemical; details: compared to 12-14

Cc1cc2c(C(=O)NCC(C)c3ccccc3)c(O)c(O)cc2c(O)c1-c1c(C)cc2c(C(=O)NCC(C)c3ccccc3)c(O)c(O)cc2c1O (single isomer, unassigned) [Compound 13]
Plasma stability (T = 1 h) [1]: 42%

Cc1cc2c(C(=O)NCC(C)c3ccccc3)c(O)c(O)cc2c(O)c1-c1c(C)cc2c(C(=O)NCC(C)c3ccccc3)c(O)c(O)cc2c1O (single isomer, unassigned) [Compound 14]
EC50 (H460 cells): 0.8 ± 0.09 µM | Plasma stability (T = 1 h) [1]: 41% | toxicity in MEF/DKO cells [2]: almost equally effective in killing both MEF/WT and MEF/DKO

Cc1cc2c(C(=O)NCC(C)c3ccccc3)c(O)c(O)cc2c(O)c1-c1c(C)cc2c(C(=O)NCC(C)c3ccccc3)c(O)c(O)cc2c1O (single isomer, unassigned) [Compound 12]
Plasma stability (T = 1 h) [1]: 28% | plasma stability ([1]; compared to other diastereoisomers): decreased plasma and microsomal stability | microsomal stability [3]: decreased plasma and microsomal stability | in vivo activity in Bcl-2 transgenic mice [4]: weak in vivo activity

Cc1cc2c(C(C)C)c(O)c(O)c(C=O)c2c(O)c1-c1c(C)cc2c(C(C)C)c(O)c(O)c(C=O)c2c1O [(+) 1]
EC50 [5]: ~10 µM

CN(C)CC[C@H](CSc1ccccc1)Nc1ccc(S(=O)(=O)NC(=O)c2ccc(N3CCN(Cc4ccccc4-c4ccc(Cl)cc4)CC3)cc2)cc1[N+](=O)[O-] [ABT-737]
apoptosis induction / cytotoxic activity against BP3 cell line (BP3 cell line): no cytotoxic activity | effectiveness against cancer cells that overexpress Mcl-1 [6]: not effective

Cc1cc2c(C(=O)NC[C@@H](C)c3ccccc3)c(O)c(O)cc2c(O)c1-c1c(C)cc2c(C(=O)NC[C@H](C)c3ccccc3)c(O)c(O)cc2c1O (atropisomer, axis not shown) [Compound 11]
times more potent than other isomers 12-14 in ITC assay (Bcl-XL [7]): 4-20 times | Plasma stability (T = 1 h) [1]: 41% | microsomal stability [3]: relatively good microsomal stability | cell membrane permeability [8]: superior cell membrane permeability | wild type MEF cells killed [9]: ~70% | cytotoxicity against bax−/−bak−/− cells (summary statement) [2]: less cytotoxicity; also recorded: little cytotoxicity | toxicity in MEF/DKO cells [2]: slight toxicity | in vivo activity in Bcl-2 transgenic mice [4]: superior in vivo activity | spleen weight reduction ([4]; single i.p. injection at 42 mg/kg, 24 hours): more than 30% | tumor growth inhibited to % of the tumor volume in the control group (M2182 cells; 3 mg/kg i.p. every 2 days, nine injections): ~60% | inhibition of tumor growth in both flanks (M2182 cells; 5 mg/kg i.p. every 2 days, nine injections): near complete inhibition of tumor growth | inhibitory effect of tumor size compared with the control group (M2182 cells): marked inhibitory effect of tumor size | NMR binding to Bcl-XL (Bcl-XL [10]): larger chemical shift perturbations; also recorded: low to submicromolar binding affinity | NMR binding to Mcl-1 (Mcl-1): significant binding | chemical stability [11]: better chemical stability

Cc1cc2c(C(=O)NCC(C)c3ccccc3)c(O)c(O)cc2c(O)c1-c1c(C)cc2c(C(=O)NCC(C)c3ccccc3)c(O)c(O)cc2c1O (racemic) [Compound 4]
cytotoxicity in MEF/DKO cells compared to isomer 11 ([2]; 3-30 μM): higher cytotoxicity in MEF/DKO cells | inhibitory effect of tumor size (M2182 cells; 10 mg/kg i.p. every 2 days, nine injections): weak inhibitory effect of tumor size | inhibition of tumor growth in both flanks (M2182 cells; 25 mg/kg i.p. every 2 days, nine injections): near complete inhibition of tumor growth | inhibitory effect of tumor size compared with the control group (M2182 cells): marked inhibitory effect of tumor size
